Results published in patent US10202372B2, “Trisubstituted pyrido[2,3-D]pyrimidines, methods for preparing same and therapeutic uses thereof” (CENTRE NATIONAL DE LA RECHERCHE SCIENTIFIQUE (C.N.R.S), priority 2012, dated 2019).

Key:
PI3Kα = PI3Kα (Homo sapiens, UniProt P42336); experiment: PI3Kα kinase activity, Adapta TR-FRET ADP detection; format: biochemical; details: purified p110α/p85α heterodimer, triplicate; read-out: Kinases IC50 PI3Kα
Experimental: (§1) The activity of the PI3Kα kinase was evaluated by using a purified heterodimer (reference: PV4788 from Invitrogen) consisting of the α catalytic p110 subunit (PIK3CA) and the α regulation p85 subunit (PIK3R1). The assay of the kinase with the kit Adapta™ (reference: PV5099 from Invitrogen) is an enzymatic test based on the detection of ADP, produced during the reaction, by the fluorescence technique TR-FRET. It took place in a 384-well plate and was able to be divided into two phases: an enzymatic reaction phase, and a phase for detecting the ADP level.
(§2) During the enzymatic reaction phase, the following components were mixed in 10 μL of a same well: 2.5 μL of each dilution in series of inhibitors taken up in DMSO and then diluted to 1/25 in the reaction buffer (250 mM HEPES pH 7.5, 500 mM NaCl, 0.15 CHAPS, 5 mM EGTA, 15 mM MgCl2 and 1 mM DTT, ref.: PV5101 from Invitrogen), 2.5 μL of a solution containing PI3K at the optimum concentration (concentration defined according to the optimization step described in the operating procedure of the kit) diluted in the same reaction buffer, and finally, 5 μL of a solution containing 20 μM ATP and 100 μM PIP2 diluted in the reaction buffer. For each inhibitor concentration, the reaction was conducted in three copies (triplicate). The reaction was then incubated for 60 min at room temperature without any stirring in darkness.
(§3) During the phase for detecting ADP, 5 μL of a detection solution containing an anti-ADP antibody labeled with europium (6 nM), a tracer of the Alexa Fluor® 647 type coupled with ADP (30 nM), and EDTA (30 mM, for stopping the kinase reaction) were diluted in the dilution buffer (reference: PV3574 from Invitrogen). After 30 min of incubation at room temperature with stirring (40 rpm) in darkness, the 384-well plates were read in a plate reader Victor V configured for HTRF (Perkin Elmer). The excitation was produced at 340 nm and emission was measured at 665 nm and 615 nm. The inhibition curve was then plotted according to the emission ratio at 665 nm/615 nm versus the inhibitor concentration.
(§4) In order to obtain a linear response of the signal, a titration curve ATP-ADP, corresponding to the conversion % of ATP into ADP, was achieved by varying both of these species while keeping [ADP]+[ATP]=10 μM. The emission ratio at 665 nm/615 nm resulting from this (Y) was plotted versus the conversion % of ATP into ADP (X). The data of this curve were formatted according to a model with three hyperbolic parameters from the following equation: Y=C+A*(1−(X/(B+X))).
(§5) The software package GraphPad™ Prism® thus allows calculation of the parameters A, B and C. A conversion % corresponds to an emission ratio 665 nm/615 nm, this percentage is calculated by using the following equation: Conversion %=B*(C+A−Ratio)/(Ratio−C)
(§6) The three parameters A, B and C having been defined by the preceding equation, the conversion % was therefore able to be plotted versus the inhibitor concentration. The amount of inhibitor required for causing a 50% variation in the % conversion of ATP into ADP corresponds to the IC50 value of the inhibitor.

PI3Kγ = PI3Kγ (Homo sapiens, UniProt P48736); experiment: PI3Kγ kinase activity, Adapta TR-FRET ADP detection; format: biochemical; details: p110γ catalytic subunit; read-out: Kinases IC50 PI3Kγ
PI3Kγ, sequence (P48736 whole entry): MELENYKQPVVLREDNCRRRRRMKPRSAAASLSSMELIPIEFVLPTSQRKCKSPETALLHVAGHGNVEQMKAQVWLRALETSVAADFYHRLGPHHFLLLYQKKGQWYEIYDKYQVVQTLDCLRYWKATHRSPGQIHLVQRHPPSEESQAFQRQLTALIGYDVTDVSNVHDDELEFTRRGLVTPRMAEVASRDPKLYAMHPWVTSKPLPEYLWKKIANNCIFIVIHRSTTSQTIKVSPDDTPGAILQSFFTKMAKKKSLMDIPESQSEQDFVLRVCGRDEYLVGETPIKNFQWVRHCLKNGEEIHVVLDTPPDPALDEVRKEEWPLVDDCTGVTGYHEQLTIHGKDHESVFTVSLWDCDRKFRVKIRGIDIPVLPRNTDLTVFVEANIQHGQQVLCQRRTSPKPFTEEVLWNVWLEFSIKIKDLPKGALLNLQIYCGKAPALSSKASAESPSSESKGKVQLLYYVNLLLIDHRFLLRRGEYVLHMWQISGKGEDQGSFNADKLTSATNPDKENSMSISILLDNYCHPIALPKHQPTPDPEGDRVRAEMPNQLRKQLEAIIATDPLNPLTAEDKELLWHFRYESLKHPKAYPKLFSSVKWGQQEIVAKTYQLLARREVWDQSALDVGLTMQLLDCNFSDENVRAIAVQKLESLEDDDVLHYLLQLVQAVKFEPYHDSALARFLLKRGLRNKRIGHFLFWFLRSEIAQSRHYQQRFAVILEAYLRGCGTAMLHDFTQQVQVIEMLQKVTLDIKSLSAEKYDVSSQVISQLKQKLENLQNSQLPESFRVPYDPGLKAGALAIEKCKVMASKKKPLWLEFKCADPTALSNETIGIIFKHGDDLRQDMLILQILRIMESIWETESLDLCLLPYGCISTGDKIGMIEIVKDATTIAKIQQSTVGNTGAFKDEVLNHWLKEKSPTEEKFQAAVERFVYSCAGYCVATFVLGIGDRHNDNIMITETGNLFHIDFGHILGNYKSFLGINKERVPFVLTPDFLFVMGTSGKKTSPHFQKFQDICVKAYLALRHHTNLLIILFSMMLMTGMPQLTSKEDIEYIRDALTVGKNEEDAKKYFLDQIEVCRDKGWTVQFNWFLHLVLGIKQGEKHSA
Experimental: as §1, §2, §3, §4, §5, §6
(§7) The activity of the kinase PI3Kγγ (PV4786 from Invitrogen) was evaluated on the p110γγ catalytic subunit (PI3KCG) and that of the kinase PI3Kδδ on the purified heterodimer (PV5273) respectively consisting of the δδ catalytic p110 subunit (PIK3CD) and the α regulation p85 subunit (PIK3R1) by following the same procedure.

PI3Kδ = PI3Kδ (Homo sapiens, UniProt O00329); experiment: PI3Kδ kinase activity, Adapta TR-FRET ADP detection; format: biochemical; details: purified p110δ/p85α heterodimer; read-out: Kinases IC50 PI3Kδ
PI3Kδ, sequence (O00329 whole entry): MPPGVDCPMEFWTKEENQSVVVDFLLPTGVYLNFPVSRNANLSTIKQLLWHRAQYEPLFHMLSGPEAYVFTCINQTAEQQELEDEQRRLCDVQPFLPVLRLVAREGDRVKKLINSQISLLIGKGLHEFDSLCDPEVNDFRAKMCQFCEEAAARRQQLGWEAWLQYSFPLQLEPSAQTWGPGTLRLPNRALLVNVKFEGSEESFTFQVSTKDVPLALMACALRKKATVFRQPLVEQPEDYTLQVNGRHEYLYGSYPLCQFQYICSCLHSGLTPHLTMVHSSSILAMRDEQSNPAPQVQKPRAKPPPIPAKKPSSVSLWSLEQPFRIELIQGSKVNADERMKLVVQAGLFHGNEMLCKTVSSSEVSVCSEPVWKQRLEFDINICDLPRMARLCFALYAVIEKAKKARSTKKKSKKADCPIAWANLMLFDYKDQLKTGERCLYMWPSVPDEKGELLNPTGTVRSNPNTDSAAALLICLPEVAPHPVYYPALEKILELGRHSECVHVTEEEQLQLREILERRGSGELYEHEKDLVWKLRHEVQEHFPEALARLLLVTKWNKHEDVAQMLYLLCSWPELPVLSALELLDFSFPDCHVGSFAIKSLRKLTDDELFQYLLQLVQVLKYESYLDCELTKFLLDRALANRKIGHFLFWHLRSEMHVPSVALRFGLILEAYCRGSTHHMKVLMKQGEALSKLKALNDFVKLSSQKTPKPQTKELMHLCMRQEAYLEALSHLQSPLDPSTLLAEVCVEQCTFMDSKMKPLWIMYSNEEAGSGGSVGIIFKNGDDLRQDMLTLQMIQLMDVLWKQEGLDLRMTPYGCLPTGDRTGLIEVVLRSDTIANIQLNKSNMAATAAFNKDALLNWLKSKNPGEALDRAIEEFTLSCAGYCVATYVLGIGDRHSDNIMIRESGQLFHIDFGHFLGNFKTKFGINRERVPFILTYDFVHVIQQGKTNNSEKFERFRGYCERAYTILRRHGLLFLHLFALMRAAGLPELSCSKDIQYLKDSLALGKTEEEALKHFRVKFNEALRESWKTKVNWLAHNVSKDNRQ
PI3Kδ, sequence (P27986 whole entry partner): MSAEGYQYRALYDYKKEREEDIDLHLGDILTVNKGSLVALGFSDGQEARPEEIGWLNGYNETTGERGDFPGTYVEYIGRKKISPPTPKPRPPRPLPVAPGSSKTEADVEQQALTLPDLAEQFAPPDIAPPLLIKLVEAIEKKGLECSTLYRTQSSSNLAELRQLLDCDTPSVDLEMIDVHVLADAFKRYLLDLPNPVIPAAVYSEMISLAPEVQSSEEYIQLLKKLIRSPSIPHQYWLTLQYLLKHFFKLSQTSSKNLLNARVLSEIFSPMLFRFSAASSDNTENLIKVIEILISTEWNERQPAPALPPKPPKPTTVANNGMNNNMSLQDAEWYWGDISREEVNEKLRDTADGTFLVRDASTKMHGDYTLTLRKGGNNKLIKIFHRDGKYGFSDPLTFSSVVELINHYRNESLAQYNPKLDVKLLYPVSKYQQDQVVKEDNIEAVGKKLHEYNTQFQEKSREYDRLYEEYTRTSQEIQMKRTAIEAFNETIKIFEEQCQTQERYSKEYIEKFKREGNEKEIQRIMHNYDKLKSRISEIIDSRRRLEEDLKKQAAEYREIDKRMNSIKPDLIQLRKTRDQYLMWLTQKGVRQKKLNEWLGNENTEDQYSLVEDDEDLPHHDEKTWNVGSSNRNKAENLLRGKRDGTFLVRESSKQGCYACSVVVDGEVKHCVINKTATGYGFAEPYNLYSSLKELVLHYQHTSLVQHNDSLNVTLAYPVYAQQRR
Experimental: as §1, §2, §3, §4, §5, §6, §7

mTOR = mTOR (Homo sapiens, UniProt P42345); experiment: mTOR kinase activity, LANCE Ultra TR-FRET; format: biochemical; details: truncated mTOR protein, triplicate; read-out: Kinases IC50 mTOR
mTOR, sequence (P42345 1360-2549): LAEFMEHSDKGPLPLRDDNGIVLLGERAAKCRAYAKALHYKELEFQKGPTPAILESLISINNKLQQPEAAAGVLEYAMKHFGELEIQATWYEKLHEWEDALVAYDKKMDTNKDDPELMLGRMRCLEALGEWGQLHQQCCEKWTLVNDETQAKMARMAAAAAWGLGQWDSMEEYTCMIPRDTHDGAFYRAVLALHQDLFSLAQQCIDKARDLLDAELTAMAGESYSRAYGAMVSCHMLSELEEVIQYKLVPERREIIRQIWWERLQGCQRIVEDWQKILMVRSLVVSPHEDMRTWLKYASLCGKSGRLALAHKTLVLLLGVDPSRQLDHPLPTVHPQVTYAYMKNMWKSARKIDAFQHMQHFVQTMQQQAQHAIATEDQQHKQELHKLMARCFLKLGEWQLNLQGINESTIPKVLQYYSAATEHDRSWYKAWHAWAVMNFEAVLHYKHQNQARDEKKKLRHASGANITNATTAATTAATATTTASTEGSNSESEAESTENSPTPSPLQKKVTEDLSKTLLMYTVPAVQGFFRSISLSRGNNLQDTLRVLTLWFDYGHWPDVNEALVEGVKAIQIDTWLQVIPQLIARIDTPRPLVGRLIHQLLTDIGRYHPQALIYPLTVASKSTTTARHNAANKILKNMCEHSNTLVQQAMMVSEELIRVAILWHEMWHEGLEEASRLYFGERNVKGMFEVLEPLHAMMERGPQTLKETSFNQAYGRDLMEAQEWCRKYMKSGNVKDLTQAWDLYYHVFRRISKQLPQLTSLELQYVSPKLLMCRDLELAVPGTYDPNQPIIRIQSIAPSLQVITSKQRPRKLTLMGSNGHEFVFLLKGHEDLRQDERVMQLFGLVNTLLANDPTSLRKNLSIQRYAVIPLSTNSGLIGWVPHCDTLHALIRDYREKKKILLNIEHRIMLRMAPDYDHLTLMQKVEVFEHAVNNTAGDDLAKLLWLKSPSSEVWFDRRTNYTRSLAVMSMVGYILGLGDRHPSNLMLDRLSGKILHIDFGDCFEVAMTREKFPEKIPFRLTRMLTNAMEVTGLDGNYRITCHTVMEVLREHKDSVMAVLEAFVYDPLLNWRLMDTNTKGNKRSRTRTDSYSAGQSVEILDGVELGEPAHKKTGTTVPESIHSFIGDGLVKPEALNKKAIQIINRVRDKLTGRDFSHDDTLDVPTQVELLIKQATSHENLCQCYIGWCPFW
Experimental: The activity of the mTOR kinase was evaluated by using a purified truncated protein of the amino acids 1-1359 (reference: PV4753 from Invitrogen). The assay of the activity of the enzyme was carried out with the kit LANCE® Ultra which is an enzymatic test based on the detection of a phosphorylated peptide produced during the reaction, by using the fluorescence technique TR-FRET. It took place in a 384-well plate and was able to be divided into two phases: an enzymatic reaction phase and a phase for detecting the phosphorylated peptide.
During the enzymatic reaction phase, the following components were mixed in 10 μL of a same well: 5 μL of each dilution in series of inhibitors taken up in DMSO and then diluted to 1/25 in the reaction buffer (50 mM HEPES pH 7.5, 0.1% Tween-20, 1 mM EGTA, 10 mM MnCl2, 3 mM MgCl2 and 2 mM of DTT), 2.5 μL of a solution containing mTOR at the optimum concentration (concentration defined according to the optimization step described in the operating procedure of the kit) diluted in the same reaction buffer, and finally 2.5 μL of a solution containing 40 μM of ATP and 200 μM non-phosphorylated peptide diluted in the reaction buffer. For each inhibitor concentration, the reaction was conducted in three copies (triplicate). The reaction was then incubated for 120 min at room temperature without any stirring in darkness.
During the phase for detecting the phosphorylated peptide, 5 μL of an EDTA solution (32 mM) diluted in the dilution buffer (ref.: CR97-100 from Perkin Elmer) were injected into each well. After 5 min of incubation with stirring, 5 μL of a phosphorylated anti-peptide antibody solution labeled with europium (8 nM) and diluted in the same dilution buffer was added into each well. After 60 min of incubation at room temperature with stirring (40 rpm) in darkness, the 384-well plates were read in a plate reader Victor V configured for HTRF (Perkin Elmer). […] The inhibition curve was then plotted according to the fluorescence intensity value at 665 nm versus the inhibitor concentration.
The amount of inhibitor required for causing a 50% variation in the intensity of the signal corresponds to the IC50 value of the inhibitor.

HUH7 = experiment: Toxicity test on cells, HUH7; format: cell-based; details: Homo sapiens, Huh-7; 48 hours of treatment, Hoechst nuclei staining
Experimental: (§8) The compounds according to the invention were also tested on the cell lines HuH7, CaCo-2, HCT116, PC3, NCl, HacaT and Fibroblasts.
(§9) Operating Procedure: The cells were cultivated according to the ECACC recommendations. The toxicity test of the compounds on these cells was conducted as follows: 4×10^3 cells/well were sown in 96 wells. 24 hours after sowing the cells, the cells were exposed to increased concentrations of the compounds (0.1 μM-0.3 μM-0.9 μM-2.7 μM-8.3 μM-25 μM). After 48 hours of treatment, the cells were washed in PBS and bound in a cold ethanol/acetic acid (90/5) mixture for 20 minutes. Next, the nuclei were coloured with […] (Sigma). The acquisition of images and the analysis was carried out by means of a reader Cellomics ArrayScan VTI/HCS (Thermo Scientific).

CaCo2 = experiment: Toxicity test on cells, CaCo2; format: cell-based; details: Homo sapiens, Caco-2; 48 hours of treatment, Hoechst nuclei staining
Experimental: as §8, §9

MDA = experiment: Toxicity test on cells, MDA; format: cell-based; details: 48 hours of treatment, Hoechst nuclei staining
Experimental: [The procedure below names another cell line; the source lists this cell line under the same test.] as §8, §9

HCT116 = experiment: Toxicity test on cells, HCT116; format: cell-based; details: Homo sapiens, HCT-116; 48 hours of treatment, Hoechst nuclei staining
Experimental: as §8, §9

PC3 = experiment: Toxicity test on cells, PC3; format: cell-based; details: Homo sapiens, PC-3; 48 hours of treatment, Hoechst nuclei staining
Experimental: as §8, §9

NCl = experiment: Toxicity test on cells, NCl; format: cell-based; details: 48 hours of treatment, Hoechst nuclei staining
Experimental: as §8, §9

Fibroblasts = experiment: Toxicity test on cells, Fibroblasts; format: cell-based; details: Fibroblast; 48 hours of treatment, Hoechst nuclei staining
Experimental: as §8, §9

HacaT = experiment: Toxicity test on cells, HacaT; format: cell-based; details: Homo sapiens, 48 hours of treatment, Hoechst nuclei staining
Experimental: as §8, §9

CN(C)Cc1cn(Cc2cnc3c(N4CCOCC4)nc(-c4cccc(O)c4)nc3c2)nn1 [Compound 58, 3-[7-({4-[(dimethylamino)methyl]-1H-1,2,3-triazol-1-yl}methyl)-4-(morpholin-4-yl)pyrido[3,2-d]pyrimidin-2-yl]phenol]
IC50 (PI3Kα): 38 nM

Oc1cccc(-c2nc(N3CCOCC3)c3ncc(Cn4cc(CF)nn4)cc3n2)c1 [Compound 61, 3-(7-{[4-(fluoromethyl)-1H-1,2,3-triazol-1-yl]methyl}-4-(morpholin-4-yl)pyrido[3,2-d]pyrimidin-2-yl)phenol]
IC50 (PI3Kα): 391 nM

COCOCc1cn(Cc2cnc3c(N4CCOCC4)nc(-c4cccc(O)c4)nc3c2)nn1 [Compound 59, 3-[7-({4-[(methoxymethoxy)methyl]-1H-1,2,3-triazol-1-yl}methyl)-4-(morpholin-4-yl)pyrido[3,2-d]pyrimidin-2-yl]phenol]
IC50 (PI3Kα): 116 nM

N#CCc1cnc2c(N3CCOCC3)nc(-c3cccc(O)c3)nc2c1 [Compound 41, 2-(2-(3-hydroxyphenyl)-4-morpholinopyrido[3,2-d]pyrimidin-7-yl)acetonitrile]
IC50 (PI3Kα): 51 nM
IC50 (PI3Kγ): 127 nM
IC50 (PI3Kδ): 340 nM
IC50 (mTOR): 820 nM

C=Cc1cnc2c(N3CCOCC3)nc(-c3cccc(O)c3)nc2c1 [Compound 14, 3-(4-morpholino-7-vinylpyrido[3,2-d]pyrimidin-2-yl)phenol]
IC50 (PI3Kα): 98 nM
IC50 (PI3Kγ): 196 nM
IC50 (PI3Kδ): 11 nM
IC50 (mTOR): 109 nM
IC50 (HUH7): 20 µM
IC50 (CaCo2): 1.5 µM
IC50 (MDA): 20 µM
IC50 (HCT116): 5 µM
IC50 (PC3): 20 µM
IC50 (NCl): 20 µM
IC50 (Fibroblasts): > 25 µM

O=CCCc1cnc2c(N3CCOCC3)nc(-c3cccc(O)c3)nc2c1 [Compound 46]
IC50 (PI3Kα): 57 nM
IC50 (PI3Kγ): 563 nM
IC50 (PI3Kδ): 81 nM
IC50 (mTOR): 1900 nM

OCC(O)c1cnc2c(N3CCOCC3)nc(-c3cccc(O)c3)nc2c1 (stereo not drawn) [Compound 22, 1-(2-(3-hydroxyphenyl)-4-morpholinopyrido[3,2-d]pyrimidin-7-yl)ethane-1,2-diol]
IC50 (PI3Kα): 82 nM
IC50 (PI3Kγ): 344 nM
IC50 (PI3Kδ): 41 nM
IC50 (mTOR): 460 nM
IC50 (HUH7): > 25 µM
IC50 (CaCo2): 4 µM
IC50 (MDA): 10 µM
IC50 (HCT116): 5 µM
IC50 (PC3): 4 µM
IC50 (NCl): > 25 µM
IC50 (Fibroblasts): > 25 µM

O=C(O)c1cnc2c(N3CCOCC3)nc(-c3cccc(O)c3)nc2c1 [Compound 42, 2-(3-hydroxyphenyl)-4-morpholinopyrido[3,2-d]pyrimidine-7-carboxylic acid]
IC50 (PI3Kα): 10 nM
IC50 (PI3Kγ): 399 nM
IC50 (PI3Kδ): 63 nM
IC50 (mTOR): 135 nM

C=Cc1cnc2c(N3CCOCC3)nc(-c3cccc(CO)c3)nc2c1 [Compound 17, (3-(4-Morpholino-7-vinylpyrido[3,2-d]pyrimidin-2-yl)phenyl)methanol]
IC50 (HUH7): 15 µM
IC50 (CaCo2): 5 µM
IC50 (MDA): > 25 µM
IC50 (HCT116): 6 µM
IC50 (PC3): 25 µM
IC50 (NCl): > 25 µM
IC50 (HacaT): 4 µM
IC50 (Fibroblasts): > 25 µM

O=Cc1cnc2c(N3CCOCC3)nc(-c3cccc(O)c3)nc2c1 [Compound 20, 2-(3-hydroxyphenyl)-4-morpholinopyrido[3,2-d]pyrimidine-7-carbaldehyde]
IC50 (PI3Kα): 47 nM
IC50 (PI3Kγ): > 50000 nM
IC50 (PI3Kδ): 10 nM
IC50 (mTOR): 71 nM
IC50 (HUH7): 20 µM
IC50 (CaCo2): 4 µM
IC50 (MDA): 20 µM
IC50 (HCT116): 6 µM
IC50 (PC3): 25 µM
IC50 (NCl): > 25 µM
IC50 (Fibroblasts): > 25 µM

CS(=O)(=O)N1CCN(Cc2cnc3c(N4CCOCC4)nc(-c4cccc(O)c4)nc3c2)CC1 [Compound 55, 3-{7-[(4-methanesulfonylpiperazin-1-yl)methyl]-4-(morpholin-4-yl)pyrido[3,2-d]pyrimidin-2-yl}phenol]
IC50 (PI3Kα): 56 nM

OCc1cnc2c(N3CCOCC3)nc(-c3cccc(O)c3)nc2c1 [Compound 34, 3-(7-(hydroxymethyl)-4-morpholinopyrido[3,2-d]pyrimidin-2-yl)phenol]
IC50 (PI3Kα): 366 nM
IC50 (PI3Kγ): 22 nM
IC50 (PI3Kδ): 126 nM
IC50 (mTOR): 350 nM
IC50 (HUH7): 1 µM
IC50 (CaCo2): 1.5 µM
IC50 (MDA): 25 µM
IC50 (HCT116): 3 µM
IC50 (PC3): 5 µM
IC50 (NCl): > 25 µM
IC50 (Fibroblasts): 25 µM

COCc1cn(Cc2cnc3c(N4CCOCC4)nc(-c4ccc(NC(=O)NCC(F)(F)F)cc4)nc3c2)nn1 [Compound 82, 1-[4-(7-{[4-(methoxymethyl)-1H-1,2,3-triazol-1-yl]methyl}-4-(morpholin-4-yl)pyrido[3,2-d]pyrimidin-2-yl)phenyl]-3-(2,2,2-trifluoroethyl)urea]
IC50 (PI3Kα): 18 nM
